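48-hour exposure; five concentrations; linearly interpolated endpoints. Definition used: TGI = concentration required for complete inhibition of growth.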
Columns and labels:
Test in all cases: NCI tumour cell line growth inhibition, 48 h
786-0 renal = test system: 786-0 renal
A549 NSCLC = test system: A549 NSCLC
ACHN renal = test system: ACHN renal
CAKI-1 renal = test system: CAKI-1 renal
CCRF-CEM leukemia = test system: CCRF-CEM leukemia
COLO 205 colon = test system: COLO 205 colon
DLD-1 colon = test system: DLD-1 colon
DMS 114 small cell lung = test system: DMS 114 small cell lung
EKVX NSCLC = test system: EKVX NSCLC
HCT-116 colon = test system: HCT-116 colon
HCT-15 colon = test system: HCT-15 colon
HL-60(TB) leukemia = test system: HL-60(TB) leukemia
HOP-18 NSCLC = test system: HOP-18 NSCLC
HOP-62 NSCLC = test system: HOP-62 NSCLC
HOP-92 NSCLC = test system: HOP-92 NSCLC
HT29 colon = test system: HT29 colon
IGROV1 ovarian = test system: IGROV1 ovarian
K-562 leukemia = test system: K-562 leukemia
KM12 colon = test system: KM12 colon
KM20L2 colon = test system: KM20L2 colon
LXFL 529 NSCLC = test system: LXFL 529 NSCLC
M14 melanoma = test system: M14 melanoma
M19-MEL melanoma = test system: M19-MEL melanoma
MALME-3M melanoma = test system: MALME-3M melanoma
MOLT-4 leukemia = test system: MOLT-4 leukemia
NCI-H226 lung = test system: NCI-H226 lung
NCI-H23 lung = test system: NCI-H23 lung
NCI-H460 lung = test system: NCI-H460 lung
NCI-H522 lung = test system: NCI-H522 lung
OVCAR-3 ovarian = test system: OVCAR-3 ovarian
OVCAR-4 ovarian = test system: OVCAR-4 ovarian
OVCAR-8 ovarian = test system: OVCAR-8 ovarian
RPMI-8226 leukemia = test system: RPMI-8226 leukemia
RXF 393 renal = test system: RXF 393 renal
RXF-631 renal = test system: RXF-631 renal
SF-268 CNS = test system: SF-268 CNS
SF-295 CNS = test system: SF-295 CNS
SF-539 CNS = test system: SF-539 CNS
SK-MEL-28 melanoma = test system: SK-MEL-28 melanoma
SK-MEL-5 melanoma = test system: SK-MEL-5 melanoma
SK-OV-3 ovarian = test system: SK-OV-3 ovarian
SN12C renal = test system: SN12C renal
SNB-19 CNS = test system: SNB-19 CNS
SNB-75 CNS = test system: SNB-75 CNS
SR leukemia = test system: SR leukemia
SW-620 colon = test system: SW-620 colon
TK-10 renal = test system: TK-10 renal
U251 CNS = test system: U251 CNS
UACC-257 melanoma = test system: UACC-257 melanoma
UACC-62 melanoma = test system: UACC-62 melanoma
UO-31 renal = test system: UO-31 renal
XF 498 CNS = test system: XF 498 CNS
DMS 273 small cell lung = test system: DMS 273 small cell lung
LOX IMVI melanoma = test system: LOX IMVI melanoma
OVCAR-5 ovarian = test system: OVCAR-5 ovarian
SK-MEL-2 melanoma = test system: SK-MEL-2 melanoma
SNB-78 CNS = test system: SNB-78 CNS

Measured: TGI

COC[C@@H](N=CN1CCc2cc(OC)c(OC)cc2C1)C(C)(C)C
> 100 µM: 786-0 renal | A549 NSCLC | ACHN renal | CAKI-1 renal | CCRF-CEM leukemia | COLO 205 colon | DLD-1 colon | DMS 114 small cell lung | EKVX NSCLC | HCT-116 colon | HCT-15 colon | HL-60(TB) leukemia | HOP-18 NSCLC | HOP-62 NSCLC | HOP-92 NSCLC | HT29 colon | IGROV1 ovarian | K-562 leukemia | KM12 colon | KM20L2 colon | LXFL 529 NSCLC | M14 melanoma | M19-MEL melanoma | MALME-3M melanoma | MOLT-4 leukemia | NCI-H226 lung | NCI-H23 lung | NCI-H460 lung | NCI-H522 lung | OVCAR-3 ovarian | OVCAR-4 ovarian | OVCAR-8 ovarian | RPMI-8226 leukemia | RXF 393 renal | RXF-631 renal | SF-268 CNS | SF-295 CNS | SF-539 CNS | SK-MEL-28 melanoma | SK-MEL-5 melanoma | SK-OV-3 ovarian | SN12C renal | SNB-19 CNS | SNB-75 CNS | SR leukemia | SW-620 colon | TK-10 renal | U251 CNS | UACC-257 melanoma | UACC-62 melanoma | UO-31 renal | XF 498 CNS

Cc1cc2c(=O)cc(-c3ccc(F)cc3)oc2c(C(=O)O)c1C
> 100 µM: 786-0 renal | A549 NSCLC | ACHN renal | CAKI-1 renal | CCRF-CEM leukemia | COLO 205 colon | DLD-1 colon | DMS 114 small cell lung | DMS 273 small cell lung | EKVX NSCLC | HCT-116 colon | HCT-15 colon | HOP-18 NSCLC | HT29 colon | IGROV1 ovarian | K-562 leukemia | KM12 colon | KM20L2 colon | LOX IMVI melanoma | LXFL 529 NSCLC | M14 melanoma | M19-MEL melanoma | MALME-3M melanoma | MOLT-4 leukemia | NCI-H226 lung | NCI-H23 lung | NCI-H460 lung | NCI-H522 lung | OVCAR-3 ovarian | OVCAR-4 ovarian | OVCAR-5 ovarian | OVCAR-8 ovarian | RPMI-8226 leukemia | RXF 393 renal | RXF-631 renal | SF-268 CNS | SF-295 CNS | SF-539 CNS | SK-MEL-2 melanoma | SK-MEL-28 melanoma | SK-MEL-5 melanoma | SK-OV-3 ovarian | SN12C renal | SNB-19 CNS | SNB-75 CNS | SNB-78 CNS | SW-620 colon | TK-10 renal | U251 CNS | UACC-257 melanoma | UACC-62 melanoma | UO-31 renal | XF 498 CNS
